In US5925645A, “2-aryl-substituted pyridines” (Bayer Aktiengesellschaft, priority 1996, dated 1999):

Key:
[1] = Oral activity in hamsters: HDL cholesterol and triglycerides; format: in vivo, Syrian golden hamsters
Procedure: (§1) Syrian golden hamsters from in-house breeding are anaesthetized after fasting for 24 hours (0.80 mg/kg of atropine, 0.80 mg/kg of Ketavet® s.c. 30' later 50 mg/kg of Nembutal i.p.). The jugular vein is then exposed and cannulated. The test substance is dissolved in a suitable solvent (as a rule Adalat placebo solution: 60 g of glycerol, 100 ml of H2 O, PEG-400 to 1000 ml) and administered to the animals via a PE catheter inserted into the jugular vein. The control animals receive the same volume of solvent without test substance. The vein is then tied off and the wound is closed. After various times--up to 24 hours after administration of the test substance--blood (about 250 μl) is removed from the animals by puncture of the retro-orbital venous plexus. Clotting is concluded by incubation at 4° C. overnight, then centrifugation is carried out at 6000 g for 10 minutes. In the serum thus obtained, the content of cholesterol and triglycerides is determined with the aid of modified commercially available enzyme tests (cholesterol enzymatic 14366 Merck, triglycerides 14364 Merck). Serum is suitably diluted using physiological saline solution.
(§2) 100 μl of serum dilution are mixed with 100 μl of […] in 96-well plates and incubated at room temperature for 10 minutes. The optical density is then determined at a wavelength of 492 nm using an automatic plate-reading apparatus (SLT Spectra). The triglyceride/cholesterol concentration contained in the samples is determined with the aid of a standard curve measured in parallel.
The determination of the content of HDL cholesterol is carried out after precipitation of the ApoB-containing lipoproteins by means of a reagent mixture (Sigma 352-4 HDL cholesterol reagent) according to the manufacturer's instructions.
In experiments to determine the oral activity, test substance dissolved in DMSO and suspended in 0.5% Tylose is administered orally by means of stomach tube to Syrian golden hamsters from in-house breeding. The control animals receive identical volumes of solvent without test substance. […]

[2] = molecular target: T1, cholesterol ester transfer protein (CETP) (Homo sapiens, UniProt P11597); test: CETP inhibition testing: transfer of 3H-cholesterol ester from human HD lipoproteins to biotinylated LD lipoproteins (SPA); format: biochemical; details: 3H-CE transfer HDL to biotin-LDL, 37° C., 18 h
T1 construct: CETP is obtained in partially purified form from human plasma by differential centrifugation and column chromatography; from tissue; host or cells: human plasma
T1 sequence (P11597 18-493): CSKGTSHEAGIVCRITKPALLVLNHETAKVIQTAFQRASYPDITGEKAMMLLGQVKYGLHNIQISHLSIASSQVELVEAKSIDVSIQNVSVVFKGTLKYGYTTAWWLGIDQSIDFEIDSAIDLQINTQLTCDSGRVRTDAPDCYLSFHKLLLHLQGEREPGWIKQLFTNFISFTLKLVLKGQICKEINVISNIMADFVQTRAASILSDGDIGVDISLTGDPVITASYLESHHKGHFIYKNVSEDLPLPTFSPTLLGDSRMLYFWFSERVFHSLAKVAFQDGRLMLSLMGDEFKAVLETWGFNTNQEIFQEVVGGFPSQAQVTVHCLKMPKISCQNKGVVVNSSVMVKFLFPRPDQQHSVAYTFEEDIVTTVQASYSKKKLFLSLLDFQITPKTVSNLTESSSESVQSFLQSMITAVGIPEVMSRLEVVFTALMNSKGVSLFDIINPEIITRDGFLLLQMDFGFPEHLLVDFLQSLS
Procedure: CETP is obtained in partially purified form from human plasma by differential centrifugation and column chromatography and used for the test. To this end, human plasma is adjusted to a density of 1.21 g per ml using NaBr and centrifuged at 4° C. for 18 h at 50,000 rpm. The bottom fraction (d>1.21 g/ml) is applied to a Sephadex®phenyl-sepharose 4B (Pharmacia) column, washed with 0.15M NaCl/0.001M trisHCl pH 7.4 and then eluted with dist. water. The CETP-active fractions are pooled, dialysed against 50 mM Na acetate pH 4.5 and applied to a CM-Sepharose® (Pharmacia) column. The column is then eluted using a linear gradient (0-1M NaCl). The pooled CETP fractions are dialysed against 10 mM trisHCl pH 7.4 and then further purified by chromatography on a Mono Q® column (Pharmacia).
50 ml of fresh human EDTA plasma is adjusted to a density of 1.12 using NaBr and centrifuged for 18 h at 50,000 rpm at 4° C. in a Ty 65 rotor. The upper phase is used to obtain cold LDL. The lower phase is dialysed against 3×4 l of PDB buffer (10 mM tris/HCl pH 7.4, […], 1 mM EDTA, 0.02% NaN3). 20 μl of ^3 H-cholesterol (Dupont NET-725; 1 μC/μl dissolved in ethanol) are then added per 10 ml of retentate volume and incubation is carried out at 37° C. under N2 for 72 h.
The mixture is then adjusted to the density 1.21 using NaBr and centrifuged at 20° C. at 50,000 rpm in the Ty 65 rotor for 18 h. The upper phase is recovered and the lipoprotein fractions are purified by gradient centrifugation. To this end, the isolated, labelled lipoprotein fraction is adjusted to a density of 1.26 using NaBr. Each 4 ml of this solution are covered with a layer of 4 ml of a solution of density 1.21 and 4.5 ml of a solution of density 1.063 (density solutions of PDB buffer and NaBr) in centrifuge tubes (SW 40 rotor) and then centrifuged in the SW 40 rotor for 24 h at 38,000 rpm and 20° C. The intermediate layer containing the labelled HDL lying between the densities 1.063 and 1.21 is dialyzed against 3×100 volumes of PDB buffer at 4° C.
The retentate contains radiolabelled ^3 H-CE-HDL which, adjusted to about 5×10^6 cpm per ml, is used for the test.
For testing the CETP activity, the transfer of ^3 H-cholesterol ester from human HD lipoproteins to biotinylated LD lipoproteins is measured.
The reaction is ended by addition of streptavidin-SPA® beads (Amersham) and the transferred radioactivity is determined directly in a liquid scintillation counter.
In the test mixture, 10 μl of HDL-^3 H-cholesterol ester (~50,000 cpm) are incubated at 37° C. for 18 h with 10 μl of biotin-LDL (Amersham) in 50 mM Hepes/0.15 m NaCl/0.% bovine serum albumin/0.05% NaN3 pH 7.4 with 10 μl of CETP (1 mg/ml) and 3 μl of solution of the substance to be tested (dissolved in 10% DMSO/1% RSA). 200 μl of the SPA-streptavidin bead solution (Amersham TRKQ 7005) are then added, the mixture is incubated further for 1 h with shaking and then measured in the scintillation counter. As controls, corresponding incubations with 10 μl of buffer, 10 μl of CETP at 4° C. and 10 μl of CETP at 37° C. are used. The activity transferred into the control mixtures with CETP at 37° C. is rated as 100% transfer. The substance concentration at which this transfer is reduced by half is indicated as the IC50 value.
In the following table, the IC50 values (mol/l) are indicated for CETP inhibitors: […]

[3] = HDL cholesterol after intravenous administration to hamsters; format: in vivo, Syrian golden hamsters; details: 20 mg/kg intravenous; 24 hours after substance administration
Procedure: as §1, with “Clotting is concluded by incubation at 4° C. overnight, then centrifugation is carried out at 6000 g for 10 minutes.” left out, “Serum is suitably diluted using physiological saline solution.” left out
as §2, with “parallel. […]” for “parallel.”

CETP = test: Determination of the CETP activity ex vivo after intravenous administration; format: in vivo, Syrian golden hamsters; details: 20 mg/kg intravenous
Procedure: as §1
Determination of the CETP activity
After intravenous administration of 20 mg/kg of the compound from Example 42, an about 50% reduction of the CETP activity measured ex vivo is found over a period of at least 2 hours. […]

[4] = 2×45 mg/kg per os, 24 hours after the first administration

SMILES | IC50 [2] [µM] | further results
OCc1c(-c2ccc(F)cc2)nc(C2CCCC2)c(C(F)c2ccc(C(F)(F)F)cc2)c1-c1ccc(F)cc1 (single isomer, unassigned) [Example 44] | – | increase of the level of HDL cholesterol versus control group [1, 4]: 20%; lowering of the level of the triglycerides versus control group [1, 4]: 70%
CC(C)c1nc(-c2ccc(F)cc2)c(C(C)O)c(-c2ccc(F)cc2)c1C(F)c1ccc(C(F)(F)F)cc1 (stereo not drawn) [Example 3, 4,6-Bis-(p-fluorophenyl)-2-isopropyl-3-[(p-trifluoromethylphenyl)-(fluoro)methyl]5-(1-hydroxyethyl)pyridine] | 0.8 | –
O=C(c1ccc(C(F)(F)F)cc1)c1c(C2CCCC2)nc(-c2cccc(C(F)(F)F)c2)c(CO)c1-c1ccc(F)cc1 [Example 14] | 0.07 | –
CC(O)c1c(-c2ccc(F)cc2)nc(C2CCCC2)c(C(=O)c2ccc(C(F)(F)F)cc2)c1-c1ccc(F)cc1 (stereo not drawn) [Example 26] | 0.9 | –
CC(C)c1nc(-c2ccc(F)cc2)c(CO)c(-c2ccc(F)cc2)c1C(F)c1ccc(C(F)(F)F)cc1 (stereo not drawn) [Example 31, 2-,4-di-(4-Fluorophenyl)-6-isopropyl-5-[4-(trifluoromethylphenyl)-fluoromethyl]-3-hydroxymethyl-pyridine] | 0.5 | –
OCc1c(-c2ccc(Cl)cc2)nc(C2CCCC2)c(C(F)c2ccc(C(F)(F)F)cc2)c1-c1ccc(F)cc1 (stereo not drawn) [Example 37] | 0.3 | –
OCc1c(-c2ccc(F)cc2)nc(C2CCCC2)c(C(F)c2ccc(C(F)(F)F)cc2)c1-c1ccc(F)cc1 (stereo not drawn) [Example 42] | 0.09 to 0.17 | increase of HDL cholesterol values versus control group [3]: about 30%; increase of HDL cholesterol levels ([1]; 100 mg/kg per os, 24 hours after administration): 30%; period over which the about 50% reduction of CETP activity is found (CETP; ex vivo): at least 2 hours; reduction of the CETP activity measured ex vivo (CETP; over a period of at least 2 hours): about 50%
OCc1c(-c2ccc(F)cc2)nc(C2CCCC2)c(C(F)c2ccc(OC(F)(F)F)cc2)c1-c1ccc(F)cc1 (stereo not drawn) [Example 45] | 0.3 | –
OCc1c(-c2ccc(F)cc2)nc(C2CCCCC2)c(C(F)c2ccc(C(F)(F)F)cc2)c1-c1ccc(F)cc1 (stereo not drawn) [Example 51] | 0.4 | –
OCc1c(-c2ccc(F)cc2)nc(C2CCCCCC2)c(C(F)c2ccc(C(F)(F)F)cc2)c1-c1ccc(F)cc1 (stereo not drawn) [Example 53] | 0.17 | –
CC(C)c1nc(-c2ccc(F)cc2)c(CO)c(-c2cccc(Cl)c2)c1Cc1ccc(C(F)(F)F)cc1 [Example 63] | 1 | –
OCc1c(-c2ccc(F)cc2)nc(C2CCCC2)c(C(F)c2ccc3ccccc3c2)c1-c1ccc(F)cc1 (stereo not drawn) [Example 68] | 0.08 | –
CC(C)c1nc(-c2ccc(F)cc2)c(CO)c(-c2ccc(F)cc2)c1C=Cc1cccc(C(F)(F)F)c1 [Example 83, 2,4-di-(4-Fluorophenyl)-6-isopropyl-5-[2-(3-trifluoromethylphenyl)vinyl]-3-hydroxymethyl-pyridine] | 5 | –
